Reference: PubChem BioAssay (NCI)
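Exposure lasted 48 hours, with cells grown in 96-well plates and compounds tested at five concentrations. GI50 = concentration required for 50% inhibition of growth. At the TGI there is no net growth.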 Where a SMILES comes first, the peptide text is derived from it. [ ]: non-standard residue; d: D form. ξ: configuration not given here. ξLac(3-iPr) = CC(C)CC(O)C(=O)O; NMeV = CN[CH](C(=O)O)C(C)C; NMeA = CN[CH](C)C(=O)O; βAla = NCCC(=O)O

How the values were obtained:
Assay in all cases: growth of human tumour cells (NCI), 48 h
HOP-62 NSCLC = test system: HOP-62 NSCLC
OVCAR-3 ovarian = test system: OVCAR-3 ovarian
TK-10 renal = test system: TK-10 renal
CAKI-1 renal = test system: CAKI-1 renal
DMS 114 small cell lung = test system: DMS 114 small cell lung
DMS 273 small cell lung = test system: DMS 273 small cell lung
LXFL 529 NSCLC = test system: LXFL 529 NSCLC
M19-MEL melanoma = test system: M19-MEL melanoma
MALME-3M melanoma = test system: MALME-3M melanoma
NCI-H522 lung = test system: NCI-H522 lung
OVCAR-4 ovarian = test system: OVCAR-4 ovarian
BT-549 breast = test system: BT-549 breast
DU-145 prostate = test system: DU-145 prostate
DLD-1 colon = test system: DLD-1 colon
KM20L2 colon = test system: KM20L2 colon
SNB-78 CNS = test system: SNB-78 CNS
XF 498 CNS = test system: XF 498 CNS

Compound	GI50 (HOP-62 NSCLC) [µM]	TGI (HOP-62 NSCLC) [µM]	GI50 (OVCAR-3 ovarian) [µM]	TGI (OVCAR-3 ovarian) [µM]	GI50 (TK-10 renal) [µM]	TGI (TK-10 renal) [µM]	TGI (CAKI-1 renal) [µM]	TGI (DMS 114 small cell lung) [µM]	TGI (DMS 273 small cell lung) [µM]	TGI (LXFL 529 NSCLC) [µM]	TGI (M19-MEL melanoma) [µM]	TGI (MALME-3M melanoma) [µM]	TGI (NCI-H522 lung) [µM]	TGI (OVCAR-4 ovarian) [µM]	TGI (BT-549 breast) [µM]	TGI (DU-145 prostate) [µM]	TGI (DLD-1 colon) [µM]	TGI (KM20L2 colon) [µM]	TGI (SNB-78 CNS) [µM]	TGI (XF 498 CNS) [µM]
N#C/C(=C\c1ccc(Br)cc1)n1nnc2cc(Cl)c(Cl)cc21	3.26	> 100	2.1	5.29	3.32	6.71	–	–	–	–	–	–	–	–	–	–	–	–	–	–
CN=C(N)c1ccc(N=C(N)c2ccc(C(N)=Nc3ccc(C(N)=NC)cc3)cc2)cc1	–	> 100	–	> 100	–	> 100	> 100	> 100	> 100	> 100	> 100	> 100	> 100	> 100	–	–	–	–	–	–
CO/N=C\c1cc(O)c(O)c(/C=N/OC)c1	–	> 100	–	> 100	–	> 100	> 100	–	–	–	–	> 100	> 100	> 100	> 100	> 100	–	–	–	–
O=C(N/N=C/c1ccc([N+](=O)[O-])cc1)Nc1ccc(Br)cc1	–	> 100	–	> 100	–	> 100	> 100	–	–	–	–	> 100	> 100	> 100	> 100	> 100	–	–	–	–
C[N+](C)(C)c1cc2c(nn1)Nc1ccccc1S2	–	69.8	–	54.8	–	> 100	> 100	–	–	–	–	70	52.8	70.1	> 100	> 100	–	–	–	–
CCC(C)C1NC(=O)C2CCCN2C(=O)C(CC(C)C)OC(=O)CCNC(=O)C(C)N(C)C(=O)C(C(C)C)N(C)C1=O (centres undefined) (cyclo([ξLac(3-iPr)]PI[NMeV][NMeA][βAla]); configuration not given here)	–	17.7	–	> 100	–	> 100	> 86.2	–	–	–	–	45.2	60.2	> 100	> 100	> 89.2	–	–	–	–
O=C(c1ccccc1)C1C(c2ccccc2)N1S(=O)(=O)c1ccccc1 (centres undefined)	–	> 100	–	> 100	–	> 100	> 100	–	–	–	–	> 100	> 100	> 100	> 100	> 100	–	–	–	–
Cc1ccc2c(ccc(/C=C\c3cc(C)c4cccnc4c3O)[n+]2C)c1	–	27.6	–	12.9	–	–	25.5	7.54	21.4	18.9	–	25.1	27.8	39	–	–	4.36	33.3	–	–
CCOC(=O)c1c(C)n(C)c2c1cc(O)c1[nH]c3c(c12)CCCC3	–	> 100	–	25.1	–	60.9	> 100	–	–	–	–	31.7	28.7	23.5	> 100	> 100	–	–	–	–
Cc1nc2[nH]ncn2c(=O)c1CCCl	–	> 10	–	–	–	> 10	> 10	–	–	–	–	> 10	> 10	> 10	–	> 10	–	–	–	–
Clc1ccc(C[P+]2(c3ccccc3)CCCCC2)cc1	–	> 100	–	> 100	–	> 100	–	> 100	> 100	> 100	> 100	> 100	> 100	–	–	–	> 100	> 100	> 100	86.7
C[C@]12CC[C@@H]3c4ccc(O)cc4CC[C@H]3[C@@H]1CC[C@@H]2OC(=O)CCc1ccccc1	–	55.9	–	61.6	–	33.9	37.7	–	–	–	–	34.8	32.9	39.1	34.2	43	–	–	–	–
CCN(CC)c1ccc2nc3ccc(N=Nc4c(O)ccc5ccccc45)cc3[n+](-c3ccccc3)c2c1	–	> 100	–	> 100	–	> 100	> 100	–	–	–	–	> 100	> 100	> 100	> 100	> 100	–	–	–	–
COc1cc(C(=O)CC2OC(=O)C(Cl)=C2Cl)ccc1Cl (centres undefined)	–	> 100	–	> 100	–	> 100	> 100	> 100	> 100	> 100	> 100	> 100	> 100	> 100	–	–	> 100	> 100	> 100	> 100
OCc1cc2ccncc2c2c1[nH]c1ccccc12	–	–	–	–	–	67.7	17.9	23.1	16.5	22	–	24.6	–	26.8	–	–	> 100	–	63.1	19.7
Clc1ccc(OCc2nnc3sc(-c4ccc(-c5ccc(Cl)cc5Cl)o4)nn23)cc1	–	> 100	–	> 100	–	> 100	> 100	–	–	–	–	> 100	> 100	> 100	> 100	> 100	–	–	–	–
CC1(C)N=C(N)N=C(N)N1c1cccc(C(=O)Nc2ccc(S(=O)(=O)F)cc2)c1	–	> 100	–	> 100	–	> 100	> 100	–	–	–	–	> 100	> 100	> 100	> 100	> 100	–	–	–	–
Cc1ccc(C2COc3cc(O)c(O)cc3C2)cc1 (centres undefined)	–	266	–	23.1	–	–	38.1	37	78.1	–	66.1	48.9	–	62	–	–	105	164	221	–
O=C1/C(=C/c2ccc(Oc3ccccc3)cc2)N=C(c2ccccc2)N1c1ccc(S(=O)(=O)Nc2nccs2)cc1	–	79.4	–	> 100	–	> 100	> 100	–	–	–	–	86.6	–	> 100	–	> 100	–	–	–	–
O=C1c2ccccc2C(=O)c2c(Nc3cc4c5c(ccc6c7ccc8c9c(cc(Nc%10cccc%11c%10C(=O)c%10ccccc%10C%11=O)c(c3c56)c97)-c3ccccc3C8=O)C(=O)c3ccccc3-4)cccc21	–	44.6	–	> 100	–	96.1	> 100	–	–	–	–	> 100	> 100	> 100	> 100	> 100	–	–	–	–
O=C(O)CCC(N=NNc1ccc(-c2nc3ccccc3[nH]2)cc1)C(=O)O (centres undefined)	–	> 100	–	> 100	–	> 100	> 100	–	–	–	–	–	> 100	> 100	70.6	> 100	–	–	–	–
CC(=O)n1cc(OP(=O)(Oc2ccccc2)Oc2ccccc2)c2ccccc21	–	–	–	93.6	–	> 100	54.3	–	–	–	–	> 100	–	73.3	> 100	> 100	–	–	–	–
Oc1c(Br)cc(/C=C/c2cccc(/C=C/c3cc(Br)c(O)c(Br)c3)n2)cc1Br	–	> 100	–	31.1	–	56.3	45.6	–	–	–	–	–	–	35.7	> 100	14.1	–	–	–	–
CC(NC(=O)c1ccc(NP(=O)(OCc2ccc([N+](=O)[O-])o2)N(C)CCCCCl)cc1)c1ccc(OCC2CCCCC2)c(C(N)=O)c1 (centres undefined)	–	43.4	–	33.9	–	80.7	> 100	–	–	–	–	–	34.2	49.6	–	> 100	–	–	–	–
